In patent publication US20230092163A1, “COMPOUNDS AND COMPOSITIONS FOR TREATING CONDITIONS ASSOCIATED WITH STING ACTIVITY” (IFM Due, Inc., priority 2019, published 2023):

Target: STING (Homo sapiens, UniProt Q86WV6, G230A/H232R/R293Q/R71H)
Assay: STING reporter assay: THP1-Dual KO-IFNAR2 cells stimulated with 2′3′cGAMP, luciferase reporter activity
Type: cell-based
Conditions: 15 μM 2′3′cGAMP, 24h
Method in brief: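 THP1-Dual KO-IFNAR2 cells (2×10E6 cells/mL) treated with compounds at 0.0017-100 μM, then stimulated with 2′3′cGAMP (15 μM final) delivered by Lipofectamine 2000; 24 h at 37° C. Supernatant luciferase read by QUANTI-Luc Plus luminescence; EC50 from dose-response.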

STING, sequence (Q86WV6 whole entry R71H/G230A/H232R/R293Q): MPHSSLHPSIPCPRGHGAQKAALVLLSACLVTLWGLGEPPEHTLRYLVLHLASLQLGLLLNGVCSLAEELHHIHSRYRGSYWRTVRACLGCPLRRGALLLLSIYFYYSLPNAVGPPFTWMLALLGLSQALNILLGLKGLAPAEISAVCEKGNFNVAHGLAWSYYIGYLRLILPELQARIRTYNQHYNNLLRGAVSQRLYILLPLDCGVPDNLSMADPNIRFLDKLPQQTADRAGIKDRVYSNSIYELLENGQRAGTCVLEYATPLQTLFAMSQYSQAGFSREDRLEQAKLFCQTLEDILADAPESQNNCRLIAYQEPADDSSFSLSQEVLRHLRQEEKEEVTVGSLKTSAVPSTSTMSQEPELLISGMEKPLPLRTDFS

SMILES | EC50 (class symbols) [µM] | EC50 (numeric bounds) [µM]
N#Cc1ccc(OC2CCC(NC(=O)Nc3ccc4cc[nH]c4c3)CC2)cc1 (stereo not shown) [Compound 195] | 1 to 5 | 
Cc1ccc(CNC(=O)Nc2ccc3[nH]ccc3c2)cc1 [Compound 339] |  | > 30
O=C(Nc1ccc(C(F)(F)F)cc1)Nc1ccc2c(Br)c[nH]c2c1 [Compound 196] | 0.2 to 1 | 
O=C(Nc1cccc(S(=O)(=O)C(F)(F)F)c1)Nc1ccc2[nH]ccc2c1 [Compound 315] | 5 to 100 | 
CN(C(=O)Nc1ccc2cc[nH]c2c1)c1ccc(C(F)(F)F)cc1 [Compound 267] |  | > 67.1
CCCCCNC(=O)Nc1ccc2[nH]ccc2c1 [Compound 328] |  | > 30
CNC(=O)Nc1ccc2[nH]cc(NC(=O)Nc3ccc(C(F)(F)F)cc3)c2c1 [Compound 275] | 1 to 5 | 
O=C(Nc1ccc(C(F)(F)F)cc1)Nc1cc(CO)c2cc[nH]c2c1 [Compound 157] |  | > 30
CC1(CNC(=O)Nc2ccc3[nH]ccc3c2)CCC(F)(F)CC1 [Compound 311] |  | > 30
O=C(Nc1ccc(C(F)(F)F)cc1)Nc1ccc2[nH]ccc2c1 [Compound 102] | 1 to 5 | 
O=C(Nc1ccc(C(F)(F)F)cc1)Nc1cc2[nH]ccc2cn1 [Compound 110] | 5 to 100 | 
O=C(Nc1ccc2cc[nH]c2c1)NC1CCC2(CCCCC2)OC1 (stereo not shown) [Compound 243] | 5 to 100 | 
CC(C)c1ccc(-c2nnc(NC(=O)Nc3ccc4[nH]ccc4c3)s2)cc1 [Compound 279] | 5 to 100 | 
O=C(Nc1ccc2cc[nH]c2c1)N[C@@H]1C[C@H]1c1ccccc1 [Compound 214] | 1 to 5 | 
O=C(NCCCc1cncc(C(F)(F)F)c1)Nc1ccc2[nH]ccc2c1 [Compound 298] |  | > 30
O=C(Nc1cc(F)cc(C(F)(F)F)c1)Nc1ccc2cc[nH]c2c1 [Compound 252] | 0.04 to 0.2 | 
CC(CNC(=O)Nc1ccc2[nH]ccc2c1)c1ccccc1 (stereo not shown) [Compound 325] |  | > 30

SMILES | EC50 (class symbols) [µM] | EC50 (numeric bounds) [µM]
CC(C)(C)n1cc(NC(=O)Nc2ccc3cc[nH]c3c2)cn1 [Compound 218] |  | > 30
O=C(Nc1ccc(N2CCC(F)(F)CC2)nc1)Nc1ccc2cc[nH]c2c1 [Compound 247] | 1 to 5 | 
O=C(NCCOc1cccc(Br)c1)Nc1ccc2cc[nH]c2c1 [Compound 175] | 1 to 5 | 
O=C(NCc1ccc(C(F)(F)F)c(Cl)c1)Nc1ccc2cc[nH]c2c1 [Compound 206] | 1 to 5 | 
N#Cc1ccc(CNC(=O)Nc2ccc3cc[nH]c3c2)c(C(F)(F)F)c1 [Compound 159] |  | > 30
CCCCc1ccc(Nc2c(Nc3ccc4cc[nH]c4c3)c(=O)c2=O)cc1 [Compound 113] |  | > 14.8
CCCCCCCCCCCCCCNC(=O)Nc1ccc2[nH]ccc2c1 [Compound 351] |  | > 30
O=C(Nc1ccc(Oc2c(F)cccc2F)cc1)Nc1ccc2[nH]ccc2c1 [Compound 278] |  | > 30
Cc1ccccc1CNC(=O)Nc1ccc2[nH]ccc2c1 [Compound 338] |  | > 30
O=C(Nc1cccc(OC(F)F)c1)Nc1ccc2cc[nH]c2c1 [Compound 228] | 1 to 5 | 
O=C(NCCc1ccc(Br)cc1)Nc1ccc2[nH]ccc2c1 [Compound 353] |  | > 30
O=C(Nc1ccc(Oc2c(F)cccc2F)cc1)Nc1ccc2cc[nH]c2c1 [Compound 160] | 1 to 5 | 
O=C(NCCc1ccc(OC(F)(F)F)cc1)Nc1ccc2[nH]ccc2c1 [Compound 321] |  | > 30
CC(CNC(=O)Nc1ccc2cc[nH]c2c1)c1ccccc1 (stereo not shown) [Compound 213] |  | > 30
O=C(Nc1ccc(C(F)(F)F)cc1)Nc1ccc2c3c([nH]c2c1)CCCC3 [Compound 263] | 5 to 100 | 
Cc1ccccc1CCNC(=O)Nc1ccc2cc[nH]c2c1 [Compound 212] | 1 to 5 | 

Further lines, results first:

EC50 (class symbols) [µM] | EC50 (numeric bounds) [µM] | SMILES
5 to 100 |  | COc1nc(Nc2ccc3cc[nH]c3c2)ccc1F [Compound 391, N-(5-fluoro-6-methoxypyridin-2-yl)-1H-indol-6-amine]
5 to 100 |  | CN(c1ccc2cc[nH]c2c1)c1ccc2ccc(C(F)(F)F)cc2n1 [Compound 605, N-(1H-indol-6-yl)-N-methyl-7-(trifluoromethyl)quinolin-2-amine]
 | > 30 | Cc1c(Nc2ccc3ccc(C(F)(F)F)cc3n2)ccc2cc[nH]c12 [Compound 557]
1 to 5 |  | O=C(Nc1cccc(C(F)(F)F)c1)Nc1cc(CCO)c2cc[nH]c2c1 [Compound 509, 1-(4-(2-hydroxyethyl)-1H-indol-6-yl)-3-(3-(trifluoromethyl)phenyl)urea]
0.2 to 1 |  | O=C(Nc1cc(F)cc(C(F)(F)F)c1)Nc1ccc2c(F)c[nH]c2c1 [Compound 535]
5 to 100 |  | FC(F)(F)c1ccc2c(Cl)cc(Nc3ccc4cc[nH]c4c3)nc2c1 [Compound 562, 4-chloro-N-(1H-indol-6-yl)-7-(trifluoromethyl)quinolin-2-amine]
0.2 to 1 |  | Cc1cc(Nc2ccc3cc[nH]c3c2)nc(C(F)(F)F)c1 [Compound 578]
 | > 30 | CC(=O)c1ccc2ccc(Nc3ccc4cc[nH]c4c3)nc2c1 [Compound 575, 1-{2-[(1H-indol-6-yl)amino]quinolin-7-yl}ethan-1-one]
 | > 100 | CCCCC1CCC(NC(=O)Nc2ccc3[nH]c(C)cc3c2)CC1 (stereo not shown) [Compound 375]
5 to 100 |  | Cc1cc2cc[nH]c2cc1Nc1ccc2ccc(C(F)(F)F)cc2n1 [Compound 580, N-(5-methyl-1H-indol-6-yl)-7-(trifluoromethyl)quinolin-2-amine]
 | > 1.11 | Cc1cc(NC(=O)Nc2ccc3c(F)c[nH]c3c2)cnc1N1CCC(F)(F)CC1 [Compound 499]
5 to 100 |  | Clc1ccc(Nc2ccc3cc[nH]c3c2)nc1Nc1ccc2cc[nH]c2c1 [Compound 581, 3-chloro-N2,N6-bis(1H-indol-6-yl)pyridine-2,6-diamine]
5 to 100 |  | Cn1ccc2ccc(Nc3ccc4ccc(C(F)(F)F)cc4n3)cc21 [Compound 608, N-(1-methyl-1H-indol-6-yl)-7-(trifluoromethyl)quinolin-2-amine]
5 to 100 |  | CC(C)(C)c1ccc(Nc2ccc3cc[nH]c3c2)nc1 [Compound 426, N-(5-(tert-butyl)pyridin-2-yl)-1H-indol-6-amine]
 | > 30 | COc1nc(Nc2ccc3cc[nH]c3c2)ccc1C#N [Compound 603, 6-[(1H-indol-6-yl)amino]-2-methoxypyridine-3-carbonitrile]
1 to 5 |  | CCc1ccc2ccc(Nc3ccc4cc[nH]c4c3)nc2c1 [Compound 385]
0.2 to 1 |  | Clc1cc(Cl)c2ccc(Nc3ccc4cc[nH]c4c3)nc2c1 [Compound 577, 5,7-dichloro-N-(1H-indol-6-yl)quinolin-2-amine]
1 to 5 |  | FC(F)(F)c1ccc2ccc(Nc3ccc4cc[nH]c4c3)cc2n1 [Compound 579]
5 to 100 |  | N#Cc1c[nH]c2cc(NC(=O)Nc3cccc(C(F)(F)F)c3)ccc12 [Compound 539]
 | > 30 | c1cc2ccnc(Nc3ccc4cc[nH]c4c3)c2cn1 [Compound 415, N-(1H-indol-6-yl)-2,7-naphthyridin-1-amine]

EC50 (class symbols) [µM] | EC50 (numeric bounds) [µM] | SMILES
0.2 to 1 |  | O=C(NCc1cc(Cl)cc(C(F)(F)F)c1)Nc1cc(Cl)c2cc[nH]c2c1 [Compound 536]
1 to 5 |  | N#Cc1cc(Nc2ccc3ccc(C(F)(F)F)cc3n2)cc2[nH]ccc12 [Compound 384]
 | > 30 | CC(C)(C)OC(=O)N1CCc2nc(Nc3ccc4cc[nH]c4c3)ncc2C1 [Compound 419, tert-butyl 2-((1H-indol-6-yl)amino)-7,8-dihydropyrido[4,3-d]pyrimidine-6(5H)-carboxylate]
1 to 5 |  | c1ccc(-c2ccnc(Nc3ccc4cc[nH]c4c3)c2)cc1 [Compound 401, N-(4-phenylpyridin-2-yl)-1H-indol-6-amine]
5 to 100 |  | c1cc2ccc(Nc3ccc4c(n3)CCCC4)cc2[nH]1 [Compound 567, N-(1H-indol-6-yl)-5,6,7,8-tetrahydroquinolin-2-amine]
 | > 30 | COc1ccc(Nc2ccc3cc[nH]c3c2)nc1F [Compound 601, N-(6-fluoro-5-methoxypyridin-2-yl)-1H-indol-6-amine]
5 to 100 |  | FC(F)(F)Oc1ccc(Nc2ccc3cc[nH]c3c2)nc1 [Compound 403, N-(5-(trifluoromethoxy)pyridin-2-yl)-1H-indol-6-amine]
0.2 to 1 |  | COc1cc(NC(=O)NCc2cc(Cl)cc(C(F)(F)F)c2)cc2[nH]ccc12 [Compound 503]
 | > 30 | CN1CCC(COc2cnc(Nc3ccc4cc[nH]c4c3)nc2)CC1 [Compound 414, N-(5-((1-methylpiperidin-4-yl)methoxy)pyrimidin-2-yl)-1H-indol-6-amine]
0.2 to 1 |  | Clc1ccc2ccc(Nc3ccc4cc[nH]c4c3)nc2c1 [Compound 589, 7-chloro-N-(1H-indol-6-yl)quinolin-2-amine]
 | > 30 | Cc1cc(NC(=O)Nc2ccc3[nH]ccc3c2)ccc1C#N [Compound 360]
0.2 to 1 |  | FC(F)(F)c1ccc2ccc(Nc3ccc4cc[nH]c4c3)nc2c1 [Compound 381]
 | > 30 | N#Cc1c[nH]c2cc(NC(=O)NCc3cc(Cl)cc(C(F)(F)F)c3)ccc12 [Compound 532]
0.2 to 1 |  | COc1cc(NC(=O)Nc2ccc(C(F)(F)F)cc2)cc2[nH]ccc12 [Compound 504]
 | > 30 | Fc1ccc2ccc(Nc3ccc4cc[nH]c4c3)nc2c1 [Compound 559, 7-fluoro-N-(1H-indol-6-yl)quinolin-2-amine]
0.2 to 1 |  | Fc1ccc2nc(Nc3ccc4cc[nH]c4c3)ccc2c1C(F)(F)F [Compound 550]
 | > 30 | Clc1ccc2ccc(Nc3ccc4cc[nH]c4c3)nc2c1Cl [Compound 425, 7,8-dichloro-N-(1H-indol-6-yl)quinolin-2-amine]
 | > 30 | c1cc2nccnc2c(Nc2ccc3cc[nH]c3c2)n1 [Compound 404, N-(1H-indol-6-yl)pyrido[3,4-b]pyrazin-5-amine]
1 to 5 |  | O=C(Nc1cc(F)cc(C(F)(F)F)c1)Nc1cc(CCO)c2cc[nH]c2c1 [Compound 501]
0.2 to 1 |  | C[C@H](NC(=O)Nc1cc(Cl)c2cc[nH]c2c1)c1cc(Cl)cc(C(F)(F)F)c1 (single isomer, unassigned) [Compound 520]
